Results as given in patent publication US11596642B2, “Therapeutic treatment of breast cancer based on c-MAF status” (INBIOMOTION S.L., priority 2016, dated 2023).

How the values were obtained:
Assay type in all cases: in vivo, human
breast cancer [1] = experiment: AZURE trial, retrospective MAF FISH stratification: time to bone metastasis (zoledronic acid arm vs control arm)
From the text: (§1) The MAF FISH assay was produced by Kreatech for Inbiomotion based on KREATECH proprietary FISH technology. The probe set contains two probes: a MAF 16q23 probe plus a D16Z3 probe as control of chromosome 16 centromeric region. The assay was validated using a 16q23/D16Z3 probe (Inbiomotion) and Poseidon Tissue Digestion Kit from Kreatech. The scoring criteria were defined in a fact sheet and as follows: two FISH evaluable results per patient, and the highest value was selected. The scoring algorithm was as follows: 20 cells counted for target and centromere amplification, if the gene count is >2 and ≤3, then 50 cells were counted.
An overview of the AZURE clinical trial (Coleman et al N Eng J Med 2011; 365: 1396-1405 and AZURE Current Controlled Trials number, ISRCTN79831382 and ClinicalTrials.gov identifier NCT00072020) study design, whose patients were used to validate MAF, is provided in FIG. 2. MAF was validated in a retrospective analysis of the AZURE trial using patient tumor sample prospectively collected under regulatory compliant conditions. Out of the 3360 patients recruited, 1,769 donated tumor tissue (52.4%). There were 13 TMAs (tissue micro array) (150 patient samples each) (1,769 patients). There were 4 replicas of each TMA using different tissue cores (6,326 (4×patient)). One TMA had only 1 replica and two TMAs had three replicas. Based on the H&E analysis (hematoxilyin and eosin) (FIG. 3) (6,326): 3978 cores were evaluable (63%) and 2348 were nonevaluable.
For the FISH assay, there were 2,067 FISH evaluable cores (56%). […] 567 patients were nonevaluable by FISH in any of the 4 replicas (32%).
(§2) numerical and categorical (+/− cut-off>=2.5) variable; % of nucleic MAF amplified (MAF CN>2):numberical+categorical (cut-off TBD). For the IHC analysis: IHC H-Score: numerical+categorical (cut-off=200), IHC OD: numerical+categorical (cut-off tBD). The following clinical variables were analyzed: disease-free survival (DFS), invasive disease-free survival (IDFS), overall survival (OS), first recurrence in bone, bone recurrence at any time, time to first DFS event in bone, time to first DFS event not in bone, response to zoledronic acid treatment.
In analyzing the MAF FISH prognostic value, the patients from the control and treatment arms were pooled for the initial analysis. Optimized cut-offs for each variable to be analyzed were used when indicated. Death as a competing event was used in time to bone metastasis, anytime. The following clinical variables were analyzed: time to bone metastasis (anytime), time to bone metastasis (as first event), IDFS (including ipsilateral invasive breast tumor recurrence, regional invasive breast cancer recurrence, metastatic disease-breast cancer, death attributable to any cause, including breast cancer, contralateral invasive breast cancer, second primary non-breast invasive cancer), and overall survival.
The control and zoledronic acid treatment arms from the AZURE study described in Example 1 were evaluated to determine the effect of zoledronic acid treatment on MAF-stratified patients.

breast cancer [2] = experiment: AZURE trial, MAF FISH stratification: overall survival (OS); conditions: MAF negative post menopausal patients; zoledronic acid treatment; 95% CI 0.31-1.01
From the text: as §1, with “counted. […]” for “counted.”
as §2, with “For the IHC analysis: IHC H-Score: numerical+categorical (cut-off=200), IHC OD: numerical+categorical (cut-off tBD).” left out
(§3) In analyzing the MAF FISH prognostic value, the patients from the control and treatment arms were pooled for the initial analysis. Optimized cut-offs for each variable to be analyzed were used when indicated. […]

breast cancer [3] = experiment: AZURE trial, MAF FISH stratification: invasive disease free survival (IDFS) / time to recurrence; conditions: MAF positive patients (>=2.2) in the zoledronic acid treatment arm; p<0.001, multivariate analysis
From the text: as §1, with “counted. […]” for “counted.”
as §2, with “For the IHC analysis: IHC H-Score: numerical+categorical (cut-off=200), IHC OD: numerical+categorical (cut-off tBD).” left out
as §3

breast cancer [4] = experiment: AZURE trial, MAF FISH stratification: disease free survival (DFS); conditions: MAF negative post menopausal patients; zoledronic acid treatment; 95% CI 0.33-0.95
From the text: as §1, with “counted. […]” for “counted.”
as §2, with “For the IHC analysis: IHC H-Score: numerical+categorical (cut-off=200), IHC OD: numerical+categorical (cut-off tBD).” left out
as §3

O=P(O)(O)C(O)(Cn1ccnc1)P(=O)(O)O [zoledronic acid]
Hazard ratio (HR), risk of bone metastasis at any time (breast cancer [1]; MAF FISH not positive patients, pre-specified cut off 2.5, zoledronic acid treatment vs control, death as competing event, p=0.03): 0.65
Hazard ratio (HR), time to a bone metastatic event (anytime) (breast cancer [1]; MAF non-positive non-post-menopausal patients, cut off 2.5, p=0.08): 0.66
Hazard ratio (HR), time to a bone metastatic event (anytime) (breast cancer [1]; MAF non-positive postmenopausal patients, cut off 2.5, limited number of events): 0.63
Hazard ratio (HR), time to a bone metastatic event (anytime) (breast cancer [1]; MAF positive non-post-menopausal patients, cut off 2.5, p=0.045): 2.44
Hazard ratio (HR), risk of bone metastasis at any time (breast cancer [1]; MAF positive patients, cut off 2.5, zoledronic acid treatment vs control, non-significant, p=0.22): 1.54
Hazard ratio (HR), time to a bone metastatic event (anytime) (breast cancer [1]; MAF positive postmenopausal patients (>2.5), treatment outcome, p=0.26, limited number of events): 0.46
Hazard ratio (HR), risk of bone metastasis at any time (breast cancer [1]; zoledronic acid arm, MAF FISH not positive (<2.3) compared to MAF FISH positive patients, p=0.01): 0.52
Hazard ratio (HR), overall survival outcome (breast cancer [2]): 0.56
Hazard ratio (HR), time to recurrence (invasive disease) (breast cancer [3]): 0.52
Hazard ratio (HR), DFS outcome (breast cancer [4]): 0.56
